Experimental data published in patent US7405205B2, “Antitumor antisense sequences directed against R1 and R2 components of ribonucleotide reductase” (Lorus Therapeutics Inc., priority 1996, dated 2008).
Strand notation (5' to 3'): a small letter for the sugar, then the base; units joined by * are phosphorothioate-linked, units joined directly phosphodiester-linked; [ ] holds rarer units or linkages, { } end groups; capitals alone tell only the bases. d = 2'-deoxy (DNA)

Tests used:
Type in all cases: cell-based, human
[1] = tested on: T24 bladder cell carcinoma; test: Relative colony forming efficiency after antisense treatment (Table 13); conditions: 0.2 μM antisense oligodeoxyribonucleotide phosphorothioate; T24 cells; averages of 2-8 determinations
[2] = tested on: HCT116 colon cell carcinoma; test: as above; conditions: 0.2 μM antisense oligodeoxyribonucleotide phosphorothioate; HCT116 cells; averages of 2-8 determinations
A549 lung cell carcinoma = test: as above; conditions: 0.2 μM antisense oligodeoxyribonucleotide phosphorothioate; A549 cells; averages of 2-8 determinations
[3] = tested on: MIA PaCa-2 pancreatic cell carcinoma; test: as above; conditions: 0.2 μM antisense oligodeoxyribonucleotide phosphorothioate; MIA PaCa-2 cells; averages of 2-8 determinations
[4] = tested on: PC-3 prostrate cell adenocarcinoma; test: as above; conditions: 0.2 μM antisense oligodeoxyribonucleotide phosphorothioate; PC-3 cells; averages of 2-8 determinations
[5] = tested on: HepG2 hepatocellular carcinoma; test: Relative colony forming efficiency after antisense treatment (Table 13, FIG. 12); conditions: 0.2 μM antisense oligodeoxyribonucleotide phosphorothioate; HepG2 cells; averages of 2-8 determinations

| Sequence | Reduced relative colony forming efficiency, expressed as % inhibition, T24 [1] [%] | Reduced relative colony forming efficiency, expressed as % inhibition, HCT116 [2] [%] | Reduced relative colony forming efficiency, expressed as % inhibition, A549 (A549 lung cell carcinoma) [%] | Reduced relative colony forming efficiency, expressed as % inhibition, MIA PaCa-2 [3] [%] | Reduced relative colony forming efficiency, expressed as % inhibition, PC-3 [4] [%] | Reduced relative colony forming efficiency, expressed as % inhibition, HepG2 [5] [%] |
| --- | --- | --- | --- | --- | --- | --- |
| TGGGACAGGGTGCACGGGCG (antisense dT*dG*dG*dG*dA*dC*dA*dG*dG*dG*dT*dG*dC*dA*dC*dG*dG*dG*dC*dG) [AS-II-130-20] | 51.94 | 57.98 | 86.48 | 82.11 | 74.66 | 94.28 |
| GACGGCTGGGACAGGGTGCA (antisense dG*dA*dC*dG*dG*dC*dT*dG*dG*dG*dA*dC*dA*dG*dG*dG*dT*dG*dC*dA) [AS-II-134-20] |  |  |  |  | 77.51 |  |
| ACTGCCATTGTCACTGCTAT (DNA, all phosphorothioate, methylation of C not given here) [AS-II-1581-20] | 68.22 | 66.85 | 90.55 | 24.07 | 85.83 | 93.07 |
| AAGCGGCGGGGGTTTTCTCT (dA*dA*dG*dC*dG*dG*dC*dG*dG*dG*dG*dG*dT*dT*dT*dT*dC*dT*dC*dT; antisense) [AS-II-414-20] | 11.67 | 19.1 | 12.44 | 36.11 | 60.94 | 30.89 |
| TTGTGTACCAGGTGTTTGAA (DNA, all phosphorothioate, methylation of C not given here) [AS-II-1023-20] | 58.26 |  | 34.52 | 42.82 | 87.63 |  |
| CGGCTCATCCTCCACGC (dC*dG*dG*dC*dT*dC*dA*dT*dC*dC*dT*dC*dC*dA*dC*dG*dC) [AS-II-391-17] |  |  |  | 26.35 | 93.25 | 60.64 |
| CCGTGGGCTCCTGGAAGATC (dC*dC*dG*dT*dG*dG*dG*dC*dT*dC*dC*dT*dG*dG*dA*dA*dG*dA*dT*dC; antisense) [AS-II-344-20] |  |  |  |  | 80.06 |  |
| GAAACCAAATAAATCAAGCT (DNA, all phosphorothioate, methylation of C not given here) [AS-II-1790-20] |  |  |  |  | 87.86 |  |
| TTCTGGCAAAAGGTGATACT (DNA, all phosphorothioate, methylation of C not given here) [AS-II-1538-20] | 67.29 | 51.28 | 90.34 | 50.62 | 84.71 | 96.84 |
| ATCCAGCGCAAGGCCCAGTC (antisense; DNA, all phosphorothioate, methylation of C not given here) [AS-II-816-20] | 73.91 | 88.22 | 78.4 | 93.21 | 94.08 | 93.08 |
| CAAATGGGTTCTCTACTCTG (DNA, all phosphorothioate, methylation of C not given here) [AS-II-1217-20] | 66.36 | 68.68 | 91.49 | 34.85 | 81.03 |  |
| CCTCTGATACTCGCCTACTC (DNA, all phosphorothioate, methylation of C not given here) [AS-II-1288-20] | 56.75 | 66.43 | 61.04 | 80.71 | 93.55 | 80.41 |
| CCAGCACTATAAACAGACAG (DNA, all phosphorothioate, methylation of C not given here) [AS-II-1517-20] |  |  |  |  | 91.75 |  |
| GCGGCGGGGGTTTTCTCTCA (dG*dC*dG*dG*dC*dG*dG*dG*dG*dG*dT*dT*dT*dT*dC*dT*dC*dT*dC*dA; antisense) [AS-II-412-20] | 22.2 | 27.98 | 43.78 | 55.25 | 73.96 | 26.23 |
| TCCTCGCGGTCTTGCTGGCC (dT*dC*dC*dT*dC*dG*dC*dG*dG*dT*dC*dT*dT*dG*dC*dT*dG*dG*dC*dC; antisense) [AS-II-323-20] |  | 55.8 | 91.24 | 97.55 | 79.76 | 96.39 |
| GCATCCAAGGTAAAAGAATT (DNA, all phosphorothioate, methylation of C not given here) [AS-II-1335-20] | 59.95 | 67.87 | 78.59 | 78.78 | 90.04 | 72.98 |
| GAAGCCATAGAAACAGCGGG (antisense; DNA, all phosphorothioate, methylation of C not given here) [AS-II-667-20] | 70.48 | 76.9 | 70.3 | 85.26 | 91.8 | 88.23 |
| GAAGTCAGCATCCAAGGTAA (DNA, all phosphorothioate, methylation of C not given here) [AS-II-1342-20] | 59.76 | 73.74 | 65.67 | 73.77 | 89.84 | 82.2 |
| AGCCTCTGCCTTCTTATACA (dA*dG*dC*dC*dT*dC*dT*dG*dC*dC*dT*dT*dC*dT*dT*dA*dT*dA*dC*dA; antisense) [AS-II-472-20] | 69.26 | 67.23 | 96.99 | 97.13 | 90.7 |  |
| TCAGCATCCAAGGTAAAAGA (DNA, all phosphorothioate, methylation of C not given here) [AS-II-1338-20] | 63.16 | 74.73 | 63.93 | 79.17 | 93.75 | 80.41 |
| ATGGTACTCGATGGGGAAGA (dA*dT*dG*dG*dT*dA*dC*dT*dC*dG*dA*dT*dG*dG*dG*dG*dA*dA*dG*dA) [AS-II-439-20] | 67.84 | 64.7 | 76.46 | 92.69 | 77.66 | 73.04 |
